Measured values from paper PMC3604073, “Chemerin Is an Antimicrobial Agent in Human Epidermis” (PLoS ONE, 2013).

Legend:
E. coli ATCC 25922 = experiment: Radial diffusion assay (RDA); type: cell-based; settings: peptides at 100 µM, low salt conditions
Method: The indicated bacteria were grown to mid-logarithmic phase in 10 ml of full-strength (3% w/v) TSB as previously described. The microorganisms were then washed once with 10 mM Tris, pH 7.4. 4×10^6 bacterial CFUs were then added to 15 ml of the underlay agarose gel, consisting of 0.03% (w/v) TSB, 1% (w/v) low electroendosmosis type (EEO) agarose (Sigma) and 0.02% (v/v) Tween 20 (Sigma), with or without 0.15 M NaCl. The underlay was poured into a Ø 144 mm Petri dish. After agarose solidification, 4 mm-diameter wells were punched and 6 µl of chemerin-derived peptides or LL37 (Innovagen AB) was added to each well. Plates were incubated at 37°C for 3 hours to allow diffusion of the peptides. The underlay gel was then covered with 15 ml of molten overlay (6% TSB and 1% Low-EEO agarose in dH2O). Antimicrobial activity of a peptide was visualized as a zone of clearing around each well after 18–24 hours of incubation at 37°C.

E. coli = settings: evaluated at 2 µM; cited from earlier work

Row | Molecule | inhibition of growth zones in RDA (E. coli ATCC 25922) | E. coli survival (E. coli)
1 | DWKKPECKVRPNGRKRKCLA [p5, synthetic chemerin-derived peptide] | inhibited growth zones | –
2 | RKCLACIKLGSEDKVLGRLV [p6, synthetic chemerin-derived peptide] | inhibited growth zones | –
3 | pro-chem163S: chemerin precursor (holoprotein) with the inhibitory C-terminal peptide (protein, UniProt Q99969 21-163, looked up, pro-form) pro-form: ELTEAQRRGLQVALEEFHKHPPVQWAFQETSVESAVDTPFPAGIFVRLEFKLQQTSCRKRDWKKPECKVRPNGRKRKCLACIKLGSEDKVLGRLVHCPIETQVLREAEEHQETQCLRVQRAGEDPHSFYFPGQFAFSKALPRS | – | 59±13%
